Source: patent US20240307561A1, “RA[…] INHIBITOR CONJUGATES FOR CANCER TREATMENT” (DUKE UNIVERSITY, priority 2021, published 2024)
Read-outs that look alike come from different tables or passages of the source.

Assays:
PARP-1 = PARP-1 (Homo sapiens, UniProt P09874); details: release of PARP-1 from DNA; cited from earlier work
PIP cells = details: cited from earlier work
PSMA^+ PIP cells [1] = assay: PSMA-specific uptake and internalization in PIP cells; format: cell-based; details: for Total cell-associated activity (percentage of input dose): 37° C., 5×10^5 PIP cells
Description: PSMA-specific uptake and internalization of [^131I]PARP-PSMA combo agent 13 was determined by incubation with 5×10^5 PIP cells in triplicate in the absence or presence of 200 μM 2-PMPA at 37° C. for 0.25-2 h. After removing the unbound activity-containing medium, the cells were washed with 50 mM glycine, pH 2.8 and finally, cells were lysed with 1M NaOH. Radioactivity in the supernatants, glycine wash (membrane-bound) and lysate (internalized) fractions was counted and percentage of input dose calculated. […] Total cell-associated activity was 18.7±1.0%, 30.0±0.9%, 31.8±1.0 and 37.9±0.6% at 15, 30, 60, and 120 min, respectively.

PSMA^+ PIP cells [2] = assay: Subcellular fractionation in PSMA+ PIP cells; format: cell-based; details: 1 h
Description: Subcellular fractionation of [^131I]PARP-PSMA combo agent 13 in PSMA+ PIP cells was determined using The Subcellular Protein Fractionation Kit for Cultured Cells (Number 78840) purchased from Thermo Scientific. PIP Cells (5 million) were incubated with […] of [^131I] 13 in 1.5 ml tubes with a final incubation volume of 500 μL. Stepwise separation and preparation of cytoplasmic, membrane, nuclear soluble, chromatin-bound and cytoskeletal protein extracts from PSMA^+ PIP cells were achieved by following the protocol provided by Thermo Scientific. The following groups of experiments were performed: • 1. ([^131I]PARP-PSMA combo agent 13. • 2. ([^131I]PARP-PSMA combo agent 13+2-PMPA blocking agent (680 μM) • 3. ([^131I]PARP-PSMA combo agent 13+Olaparib blocking agent (6.8 mM) • 4. ([^131I]PARP-PSMA combo agent 13+2-PMPA blocking agent (6.8 mM)+Olaparib blocking agent (6.8 mM)

[3] = + 2-PMPA (6.8 mM) + Olaparib (6.8 mM) blocking agents
[4] = + 2-PMPA blocking agent (680 μM)
[5] = + Olaparib blocking agent (6.8 mM)

Sequence of PARP-1 (P09874 whole entry): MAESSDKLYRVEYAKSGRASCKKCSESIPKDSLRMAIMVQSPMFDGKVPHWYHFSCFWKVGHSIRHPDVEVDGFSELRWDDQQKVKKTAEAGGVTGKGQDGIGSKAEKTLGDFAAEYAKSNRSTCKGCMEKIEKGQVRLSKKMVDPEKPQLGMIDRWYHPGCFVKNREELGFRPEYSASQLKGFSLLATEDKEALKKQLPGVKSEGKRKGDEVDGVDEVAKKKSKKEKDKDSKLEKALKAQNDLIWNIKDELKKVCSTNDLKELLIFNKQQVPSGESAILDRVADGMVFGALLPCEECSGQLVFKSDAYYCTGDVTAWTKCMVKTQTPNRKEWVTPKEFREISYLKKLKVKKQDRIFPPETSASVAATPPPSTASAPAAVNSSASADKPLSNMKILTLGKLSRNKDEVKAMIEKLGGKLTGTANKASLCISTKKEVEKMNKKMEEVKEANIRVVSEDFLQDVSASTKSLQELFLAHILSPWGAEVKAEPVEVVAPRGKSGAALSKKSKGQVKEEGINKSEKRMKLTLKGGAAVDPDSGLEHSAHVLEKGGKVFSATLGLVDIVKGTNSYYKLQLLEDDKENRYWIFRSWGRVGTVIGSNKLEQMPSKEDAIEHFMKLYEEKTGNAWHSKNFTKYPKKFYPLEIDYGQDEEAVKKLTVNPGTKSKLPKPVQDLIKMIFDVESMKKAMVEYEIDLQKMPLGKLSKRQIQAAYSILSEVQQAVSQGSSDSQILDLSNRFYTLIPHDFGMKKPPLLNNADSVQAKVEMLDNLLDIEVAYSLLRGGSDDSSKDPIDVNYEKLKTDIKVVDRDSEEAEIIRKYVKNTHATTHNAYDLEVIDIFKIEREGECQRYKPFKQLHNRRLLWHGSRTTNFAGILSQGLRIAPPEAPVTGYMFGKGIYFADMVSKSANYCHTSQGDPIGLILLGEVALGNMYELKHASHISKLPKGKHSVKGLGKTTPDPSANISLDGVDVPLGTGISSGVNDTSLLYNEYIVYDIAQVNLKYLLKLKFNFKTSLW

COC(=O)c1cnc(N2CCN(C(=O)c3ccc(-c4nc5c(C(N)=O)cccc5[nH]4)cc3)CC2)nc1 [UKTT15]
dissociation rate constant (kd) (PARP-1): 0.00185 s⁻¹

O=C(O)CC[C@H](NC(=O)N[C@@H](CCCCNC(=O)c1ccc([131I])cc1)C(=O)O)C(=O)O [[^131I]DCIBzL]
Total cell-associated activity (PIP cells; 30 min): 5.0±0.3% | Total cell-associated activity (PIP cells; 60 min): 9.3±1.5% | Total cell-associated activity (PIP cells; 120 min): 16.8±1.0%

O=C(O)CC[C@H](NC(=O)N[C@@H](CCCCNC(=O)CCOCCOCCOCCNC(=O)c1cc([131I])cc(C(=O)N2CCN(C(=O)c3cc(Cc4n[nH]c(=O)c5ccccc45)ccc3F)CC2)c1)C(=O)O)C(=O)O [[^131I]PARP-PSMA combo agent 13, (20S,24S)-1-(3-(4-(2-fluoro-5-((4-oxo-3,4-dihydrophthalazin-1-yl)methyl)benzoyl)piperazine-1-carbonyl)-5-[^131I]iodophenyl)-1,14,22-trioxo-5,8,11-trioxa-2,15,21,23-tetraazahexacosane-20,24,26-tricarboxylic Acid]
Total cell-associated activity (percentage of input dose) (PSMA^+ PIP cells [1]; 15 min): 18.7±1.0% | Total cell-associated activity (percentage of input dose) (PSMA^+ PIP cells [1]; 30 min): 30.0±0.9% | Total cell-associated activity (percentage of input dose) (PSMA^+ PIP cells [1]; 60 min): 31.8±1.0% | Total cell-associated activity (percentage of input dose) (PSMA^+ PIP cells [1]; 120 min): 37.9±0.6% | Uptake blocked by 2-PMPA (PSMA^+ PIP cells [1]; presence of 200 μM 2-PMPA): > 80% | Cells Left Over (PSMA^+ PIP cells [2]; [3]): 0.02% | Cytoplasmic (PSMA^+ PIP cells [2]; [3]): 2.13% | Cytoskeletal Protein (PSMA^+ PIP cells [2]; [3]): 0.02% | Membrane (PSMA^+ PIP cells [2]; [3]): 1.44% | Micrococcal Nuclease (PSMA^+ PIP cells [2]; [3]): 0.03% | Nuclear Soluble (PSMA^+ PIP cells [2]; [3]): 0.14% | Supernatant (Wash Out) (PSMA^+ PIP cells [2]; [3]): 87.21% | Total Cellular Uptake (PSMA^+ PIP cells [2]; [3]): 3.78% | Cells Left Over (PSMA^+ PIP cells [2]; [4]): 0.06% | Cytoplasmic (PSMA^+ PIP cells [2]; [4]): 1.47% | Cytoskeletal Protein (PSMA^+ PIP cells [2]; [4]): 0.03% | Membrane (PSMA^+ PIP cells [2]; [4]): 3.23% | Micrococcal Nuclease (PSMA^+ PIP cells [2]; [4]): 0.09% | Nuclear Soluble (PSMA^+ PIP cells [2]; [4]): 0.11% | Supernatant (Wash Out) (PSMA^+ PIP cells [2]; [4]): 86.85% | Total Cellular Uptake (PSMA^+ PIP cells [2]; [4]): 4.99% | Cells Left Over (PSMA^+ PIP cells [2]; [5]): 0.07% | Cytoplasmic (PSMA^+ PIP cells [2]; [5]): 3.09% | Cytoskeletal Protein (PSMA^+ PIP cells [2]; [5]): 0.15% | Membrane (PSMA^+ PIP cells [2]; [5]): 9.00% | Micrococcal Nuclease (PSMA^+ PIP cells [2]; [5]): 0.14% | Nuclear Soluble (PSMA^+ PIP cells [2]; [5]): 1.01% | Supernatant (Wash Out) (PSMA^+ PIP cells [2]; [5]): 82.42% | Total Cellular Uptake (PSMA^+ PIP cells [2]; [5]): 13.44% | Cells Left Over (PSMA^+ PIP cells [2]; no blocking agent): 0.45% | Cytoplasmic (PSMA^+ PIP cells [2]; no blocking agent): 2.50% | Cytoskeletal Protein (PSMA^+ PIP cells [2]; no blocking agent): 0.28% | Membrane (PSMA^+ PIP cells [2]; no blocking agent): 20.70% | Micrococcal Nuclease (PSMA^+ PIP cells [2]; no blocking agent): 0.59% | Nuclear Soluble (PSMA^+ PIP cells [2]; no blocking agent): 2.17% | Supernatant (Wash Out) (PSMA^+ PIP cells [2]; no blocking agent): 73.31% | Total Cellular Uptake (PSMA^+ PIP cells [2]; no blocking agent): 26.69%

C[C@]1(c2nc3c(C(N)=O)cccc3[nH]2)CCCN1 [veliparib]
dissociation rate constant (kd) (PARP-1): 0.00408 s⁻¹
